Assay results: US6362230B1, “Sulphonamide derivatives” (Eli Lilly and Company, priority 1998, dated 2002)

Target: T1, human GluR4B receptor (Homo sapiens, UniProt P48058)
T1 construct: expressed in transfected cells
Assay: potentiation of agonist-induced excitability of human GluR4B receptor expressed in HEK 293 cells
Format: cell-based
From the text: The ability of compounds of formula I or formula XVII to potentiate glutamate receptor-mediated response may be determined using fluorescent calcium indicator dyes (Molecular Probes, Eugene, Oreg., Fluo-3) and by measuring glutamate-evoked […] of calcium into GluR4 transfected HEK293 cells, as described in more detail below.
In one test, 96 well plates containing confluent monolayers of HEK cells stably expressing human GluR4B (obtained as described in European Patent Application Publication Number EP-A1-583917) are prepared. The tissue culture medium in the wells is then discarded, and the wells are each washed once with 200 μl of buffer (glucose, 10 mM, sodium chloride, 138 mM, magnesium chloride, 1 mM, potassium chloride, 5 mM, calcium chloride, 5 mM, N-[2-hydroxyethyl]piperazine-N-[2-ethanesulfonic acid], 10 mM, to pH 7.1 to 7.3). […]
Each test is then performed as follows. […] A second fluorescent reading is taken after 5 minutes incubation. 15 μl of 400 μM glutamate solution is then added to each well (final glutamate concentration 100 μM), and a third reading is taken. The activities of test compounds and cyclothiazide solutions are determined by subtracting the second from the third reading (fluorescence due to addition of glutamate in the presence or absence of test compound or cyclothiazide) and are expressed relative to enhance fluorescence produced by 100 μM cyclothiazide.

T1 sequence (P48058 21-902): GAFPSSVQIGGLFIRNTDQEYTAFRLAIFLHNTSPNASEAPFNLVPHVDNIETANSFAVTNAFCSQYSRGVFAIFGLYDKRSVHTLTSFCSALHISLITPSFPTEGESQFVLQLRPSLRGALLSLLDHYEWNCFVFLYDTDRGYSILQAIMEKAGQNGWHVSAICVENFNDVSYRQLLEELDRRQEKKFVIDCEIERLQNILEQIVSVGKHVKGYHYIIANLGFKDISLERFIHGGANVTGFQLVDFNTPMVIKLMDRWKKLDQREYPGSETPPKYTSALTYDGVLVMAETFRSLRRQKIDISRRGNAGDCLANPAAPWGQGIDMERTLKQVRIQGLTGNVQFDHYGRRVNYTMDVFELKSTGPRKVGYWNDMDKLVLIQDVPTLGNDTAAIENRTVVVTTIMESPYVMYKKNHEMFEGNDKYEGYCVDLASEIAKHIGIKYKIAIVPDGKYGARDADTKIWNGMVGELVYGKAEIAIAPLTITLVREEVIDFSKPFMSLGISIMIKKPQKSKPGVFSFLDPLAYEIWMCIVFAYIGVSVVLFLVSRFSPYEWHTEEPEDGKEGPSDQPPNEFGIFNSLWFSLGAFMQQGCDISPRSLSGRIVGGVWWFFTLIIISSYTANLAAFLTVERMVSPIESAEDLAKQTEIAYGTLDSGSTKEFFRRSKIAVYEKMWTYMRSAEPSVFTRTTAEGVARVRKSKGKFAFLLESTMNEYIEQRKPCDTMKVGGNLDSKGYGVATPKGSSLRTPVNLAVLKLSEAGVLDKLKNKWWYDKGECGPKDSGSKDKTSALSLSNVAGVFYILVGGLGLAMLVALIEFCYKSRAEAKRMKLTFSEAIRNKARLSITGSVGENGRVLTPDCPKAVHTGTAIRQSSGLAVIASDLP

NS(=O)(=O)c1cc2c(cc1Cl)NC(C1CC3C=CC1C3)NS2(=O)=O (stereo not shown) [cyclothiazide]
potentiation of agonist-induced excitability of human GluR4B receptor: potentiate agonist-induced excitability
